Reference: PubChem BioAssay AID179 (DTP/NCI, 2004)
Values joined by “and” are separate entries in the source; they are usually repeats but may differ in a detail not shown here. Equal values may be shown once. Active and inactive are the calls of the source.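 The calls were made as follows: active = compounds giving half or more protection of infected cells from virus-caused growth loss, again on retest; inactive = the rest.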

Test system: CEM cells HIV-1 protection, formazan growth assay
Assay: NCI AIDS Antiviral Assay
Conditions: for IC50: measured here: growth of uninfected CEM cells
Protocol: The ability of compounds to protect human CEM cells from HIV-1 infection is measured as a screen for new compounds capable of inhibiting the HIV virus. Five concentrations of drug were tested on uninfected and infected cells and cell growth was measured using a soluble formazan assay. […] Compounds that provided at least 50% protection were retested. Compounds that provided at least 50% protection on retest were listed as moderately active. Compounds that reproducibly provided 100% protection were listed as confirmed active. […] Note that the inability to provide protection could be due to toxicity.

Structure (SMILES)	EC50	IC50	outcome
Cc1cc(C)nc(NS(=O)(=O)c2ccc(NC(=O)c3ccc(Cl)c4c(Nc5ccc(S(=O)(=O)N=C(N)N)cc5)c5ccccc5nc34)cc2)n1	> 35.5 µM	30.9 µM	–
O=[N+]([O-])c1ccc(N=Cc2ccccc2O)cc1	> 200 µM	8.91 µM	–
C=C([Si](C)(C)C)[Si](C)(C)C	> 209 µM	> 209 µM	–
Cc1cn(C2O[C@@H]3CN(O)[C@H](C)[C@]3(O)C2O)c(=O)[nH]c1=O (stereo partly specified)	> 200 µM	> 200 µM	–
CC1=NC(=Cc2ccccc2O)C(=O)N1n1c(-c2ccccc2)nc2ccccc2c1=O	> 200 µM	12.6 µM	–
COc1cc2cccc(N=Cc3ccccc3Cl)c2cc1OC	> 30.9 µM	> 30.9 µM	–
CN1CCN(CCCN2c3ccccc3Sc3ccc(C(F)(F)F)cc32)CC1	> 200 µM	9.55 µM and 4.37 µM	–
Nc1nc(Cl)cc(NCC2(O)CC2)n1	> 200 µM	> 200 µM	–
CCOC(=O)N1CCN(P(=O)(Nc2ccc3nc(NC(=O)OC)[nH]c3c2)Oc2ccccc2)CC1 (stereo unspecified)	> 135 µM	53.7 µM	–
O=C(Nc1ccc(S(=O)(=O)/N=c2\ncccn2C(=O)C(C(F)(F)F)C(F)(F)F)cc1)C(C(F)(F)F)C(F)(F)F	> 200 µM	> 200 µM	–
COC(=O)N/N=C(\C)c1sc(-c2nc(C)c(/C(C)=N/NC(=O)OC)s2)nc1C	> 32.4 µM	> 32.4 µM	–
N#C/C(=C\NC(=S)Nc1ccc(S(=O)(=O)Nc2nccs2)cc1)C(=O)c1ccc2ccccc2c1	> 200 µM	36.3 µM	–
N#CCCN(CCC#N)c1ccc(C(Sc2ccccc2)C(NC(=O)c2cc([N+](=O)[O-])ccc2Cl)C(=O)Sc2ccccc2)cc1 (stereo unspecified)	> 10.7 µM	3.55 µM	–
COC(=O)C1(F)C(=O)NC(=O)NC1OC (stereo unspecified)	> 1120 µM	17.4 µM	–
C=C=C(CC(CC(=C)Br)(C(=O)OC)C(=O)OC)S(=O)(=O)c1ccccc1	> 200 µM	1.45 µM	–
Nc1nc(Cl)cc(OCC2CC(O)(CO)C2)n1 (stereo unspecified)	> 200 µM	> 200 µM	–
CN(C)CCCN1C(=O)C2CCC(C)(C1=O)C2(C)C (stereo unspecified)	> 832 µM	12.9 µM	–
S=C(N/N=C/c1ccccc1)NC1CC(c2ccccc2)Oc2ccccc21 (stereo unspecified)	–	–	inactive
O=S1(=O)CC(N2CCOCC2)C2=C(O1)c1sc(-c3ccccc3)nc1CC2 (stereo unspecified)	–	–	inactive
CC12CCC(O)CC1=CCC1C2CCC2(C)C1CC1=CC(C#N)C(=O)NC12O (stereo unspecified)	> 49 µM	28.8 µM	–
CCOC(=O)c1ccc(Nc2cnc3ccc(C(F)(F)F)cc3n2)cc1	> 200 µM	10.7 µM	–

Structure (SMILES)	EC50	IC50	outcome
COc1ccc2c(c1)C1(C=N2)CCN(C(C)=O)CC1	> 138 µM	> 138 µM	–
CC(C)OP(=O)(OC(C)C)/C(=N/Nc1ccc([N+](=O)[O-])cc1)NNC(N)=O	> 89.1 µM	26.3 µM	–
CN(C)P1(=S)NCC(C(C)(C)C)CO1 (stereo unspecified)	> 105 µM	> 105 µM	–
COc1cc(Oc2nc3cc(F)c(F)cc3nc2-c2ccccc2)cc(OC)c1OC	> 100 µM	35.5 µM	–
COC[C@H](C)N=CN1CCc2ccccc2C1	> 1070 µM	> 1070 µM	–
CC(C)=CCN1c2ccccc2[C@@]2(CC=C(C)C)CCN(C)[C@@H]12	> 200 µM	33.1 µM	–
Nc1c2ccccc2nc2nccnc12	> 26.3 µM	> 26.3 µM	–
COc1ccc(/C=C2\SC(c3ccc(OC)cc3)N(NC(=O)Cc3ccccc3)C2=O)cc1 (stereo unspecified)	> 15.5 µM	> 15.5 µM	–
COP(=O)(/C=C/c1cc(C(=O)OCc2ccccc2)n(S(=O)(=O)c2ccccc2)c1)OC	145 µM	> 200 µM	–
O=C1c2ccccc2C2(O)Nc3cc(O)ccc3C12O (stereo unspecified)	> 933 µM	661 µM	–
CCC1CN2CCc3cc(OC)c(OC)cc3C2CC1CC1c2cc(OC)c(OC)cc2CCN1C(=O)C1CCCN1C(=O)OCc1ccccc1 (stereo unspecified)	–	–	inactive
C/C(=N\NC(N)=S)c1ccc2c(c1)OCO2	–	–	inactive
C=CCCCCCCCCC(=O)NC(C)COC (stereo unspecified)	> 200 µM	107 µM	–
CC12C(=C(C#N)C(=N)N1c1ccc(Cl)c(Cl)c1)C=C(O)CC2SCCS(=O)(=O)O (stereo unspecified)	33.1 µM	67.6 µM	–
COc1ccc2c(c1)CCN=C2Cc1cc(OC)c(OC)cc1CCCl	> 200 µM	53.7 µM	–
COC(=O)[C@@]12OC[C@]34[C@H]([C@@H](O)[C@@H]1O)[C@@]1(C)CC(=O)C(O)=C(C)[C@@H]1C[C@H]3OC(=O)[C@H](OC(=O)/C=C(\C)C(C)C)[C@@H]24	> 123 µM	0.0389 µM	–
CC(C)(C)OC(=O)N1CCC(C(=O)O)CC1	> 200 µM	> 200 µM	–
O=[N+]([O-])/C(C(Cl)=C(Cl)Cl)=C(/Sc1ccccc1)N1CCOCC1	> 200 µM	2.63 µM	–
C=CC1ON(C)CCc2cc(OC)c(OC)cc21 (stereo unspecified)	162 µM	> 200 µM	–
O=C(/C=C/c1ccc(Cl)c(Cl)c1)c1ccccc1Cl	> 2.4 µM	> 2.4 µM	–
CSc1s[s+]c(SC)c1[O-]	–	–	inactive

Structure (SMILES)	EC50	IC50	outcome
CC(C)=O.O=C([O-])C(F)(F)F.O=C([O-])C(F)(F)F.O=C([O-])C(F)(F)F.O=C([O-])C(F)(F)F.[Rh+2].[Rh+2]	> 200 µM	> 200 µM	–
CC1=N/C(=C\c2ccccc2Br)C(=O)O1	> 97.7 µM	> 97.7 µM	–
COc1ccc(CCCN2c3ccccc3Sc3ccccc32)cc1	> 10.7 µM	> 10.7 µM	–
COC12CCCC1S(=O)(=O)C2 (stereo unspecified)	–	–	inactive
O=C(CC(O)(C(F)(F)F)C(F)(F)F)c1ccc(-c2ccccc2)cc1	> 200 µM	33.9 µM	–
O=C1C2C3C=CC(C3)C2S(=O)(=O)C2C3C=CC(C3)C12 (stereo unspecified)	> 324 µM	> 324 µM	–
CC(=O)CC(N)=O	–	–	inactive
CC(=O)Oc1cc(S(=O)(=O)Nc2n[nH]c(Nc3ccc(C)cc3)n2)c(S)cc1Cl	155 µM	263 µM	–
Cc1cc([N+](=O)[O-])c(C)c2c1[nH]c1ccc(O)cc12	> 38.9 µM	6.92 µM	–
Cc1cc2c(Br)cc(Br)c(O)c2nc1C(=O)c1ccccc1	> 4.79 µM	> 4.79 µM	–
CC1OC(=O)N2CCC=CC12 (stereo unspecified)	–	–	inactive
COC(=O)C(NC(=O)C(CC(=O)OC(C)(C)C)NC(=O)OC(C)(C)C)C(O)c1ccccc1 (stereo unspecified)	> 200 µM	> 200 µM	–
Cn1cc(NC(=O)c2cc(NC(=O)Nc3cc(C(=O)Nc4cc(C(=O)NCCC(=N)N)n(C)c4)n(C)c3)cn2C)cc1C(=O)NCCC(=N)N	15.1 µM	77.6 µM	–
O=C(CCSSc1ccccn1)ON1C(=O)CCC1=O	> 50.1 µM	> 50.1 µM	–
O=c1cc/c(=N/O)c(=O)/c1=N\O	17.4 µM	151 µM	–
CC(=O)OC[C@]12[C@H](OC(C)=O)[C@H](OC(C)=O)[C@@H]3C(OC(C)=O)[C@@]14OC3(C)COC(=O)c1cccnc1CCC(C)C(=O)OC([C@H](O)[C@@H]2OC(=O)c1ccccc1)[C@]4(C)O (stereo partly specified)	–	–	inactive
CCCCn1/c(=N/C(=S)N(C)C)ss/c1=N\C(=S)N(C)C	–	–	inactive
C=C(C)/C=C/C(O)[C@](C)(O)[C@H]1[C@H](O)C[C@@]2(C)[C@@H]3CCc4c(cc(OC5OC(CO)C(O)C(O)C5O)c(O)c4C)C3(C)C(=O)C[C@]12C (stereo partly specified)	> 200 µM	> 200 µM	–
COC(=O)C(Cc1ccccc1)NC(=O)C(CCC(=O)OCc1ccccc1)NC(=O)OC(C)(C)C (stereo unspecified)	> 200 µM	28.8 µM	–
C=C1CC(Cn2ccc(=O)[nH]c2=O)(c2ccc(Cl)cc2)OC1=O (stereo unspecified)	> 20 µM	0.912 µM	–
Cc1cc2c(C)cc3c(c2oc1=O)[C@@H](OC(=O)C12CCC(C)(C(=O)O1)C2(C)C)[C@@H](OC(=O)C12CCC(C)(C(=O)O1)C2(C)C)C(C)(C)O3 (stereo partly specified)	0.692 µM	6.92 µM	–

Structure (SMILES)	EC50	IC50	outcome
COc1ccc(CC(=O)c2cc(OC)c(OC)cc2C)cc1OC	> 398 µM	30.9 µM	–
CN1CCCC(=O)C1CC[C@H]1C(=O)CCCN1C (stereo partly specified)	> 269 µM	> 269 µM	–
CCN(CC)c1ccc(N=Nc2ccc(-c3nc4ccc[n+](C)c4s3)cc2)cc1	> 7.08 µM	4.79 µM	–
CCOP1(=O)CC(C)=C(Cl)C(OC)C1 (stereo unspecified)	> 200 µM	107 µM	–
O=C1CN(c2ccccc2)C(=O)CN1CCN1CC(=O)N(c2ccccc2)CC1=O	> 200 µM	> 200 µM	–
O=C1CC(c2ccc(Cl)cc2)C2(C(=O)NC(=O)NC2=O)C(c2ccc(Cl)cc2)C1 (stereo unspecified)	> 75.9 µM	34.7 µM	–
COc1ccccc1Nc1nc(N)nc(N)c1N	> 200 µM	36.3 µM	–
[N-]=[N+]=NCc1nc(N)c2c3c(sc2n1)CCCC3	> 200 µM	1.12 µM	–
O=[N+]([O-])c1ccc(-c2cc(O)c3nc4ccccc4n3c2)cc1	178 µM	> 200 µM	–
O=[As]O	–	–	inactive
COc1ccc(-c2cc(-c3ccccc3)nc(N)c2-c2ccc3ccccc3c2)cc1	> 200 µM	2.45 µM	–
CCC[CH2][Sn]1([CH2]CCC)[O]CC(CN(C)Cc2ccccc2)[O]1 (stereo unspecified)	> 20.9 µM	0.138 µM	–
CCOC(=O)NN(CCOS(=O)(=O)c1ccc(C)cc1)CCOS(=O)(=O)c1ccc(C)cc1	> 200 µM	120 µM	–
CC(C)(C)[Si](OC1CC(n2cnc3c(N)ncnc32)OC1CO)(c1ccccc1)c1ccccc1 (stereo unspecified)	> 100 µM	> 100 µM	–
COCN1C(=O)[C@@H]2C[C@@H](O)CN2C(=O)c2ccccc21	> 200 µM	> 200 µM	–
C=CCCCCOCOCCOC	> 138 µM	> 138 µM	–
N#C/C(C(=N)c1ccccc1)=C1\SS/C(=C(\C#N)C(=N)c2ccccc2)S1	> 200 µM	6.03 µM	–
COC(=O)C1=C(CS(=O)c2ccc([N+](=O)[O-])cc2[N+](=O)[O-])ON(C)C1c1ccccc1 (stereo unspecified)	–	–	inactive
NS(=O)(=O)c1nnc(NC(=O)c2cccc([N+](=O)[O-])c2)s1	> 200 µM	> 200 µM	–
O=C1CSC(=S)N1c1ccc2c(c1)OCO2	> 200 µM	79.4 µM	–
Cc1ccc(CC2(OCCN(C)C)CCC(C(C)(C)C)CC2)cc1 (stereo unspecified)	> 200 µM	3.16 µM and 2.95 µM	–
